Patent US6936266B2, “Desquamation/epidermal renewal of the skin and/or combating skin aging” (L'Oreal, priority 1998, dated 2005)

Tested on: differentiated human keratinocytes
Experiment: in vitro screening of an active agent on desquamation (release of corneocytes, cellular detachment index by flow cytometry)
Assay type: cell-based
Settings: for % of activity relative to the control (cellular detachment index, difference between T60 and T0): compounds at 5 × 10^−5M, 60 minutes after addition, control = identical culture in the absence of compound
Procedure: This test of in vitro screening of an active agent on desquamation was carried out on differentiated human keratinocytes. The principle of the test was based on the fact that desquamation induces the release of corneocytes. The desquamating power of the product tested will be proportionately greater the larger the number of corneocytes released.
The test procedure was as follows: starting with human skin biopsies, the keratinocytes obtained by separation of the epidermis were dissociated by enzymatic action with trypsin and were cultured at a concentration of 2×10^5 cells/ml. Growth and differentiation of the keratinocytes were obtained by culturing for 10 to 20 days in a specific medium. Next, after removing the culture medium, the activity of the test product was evaluated. To do this, two samples were taken at T0 and T60, i.e., just before adding the product and 60 minutes after this addition. The samples thus taken were analyzed with a flow cytometer in order to count the corneocyte population. The flow cytometer made it possible to distinguish the corneocyte and keratinocyte populations by treatment with acridine orange, which is specific for cellular DNA.
The cellular detachment index was determined by the difference between T60 and T0.
The test was carried out with cinnamic acid at a concentration of 5×10^−5M.
The results are given as a % of activity relative to the control consisting of an identical culture in the absence of compound.

Compound | activity on the cellular detachment (cinnamic acid at 5×10^−5M) | % of activity relative to the control (cellular detachment index, difference between T60 and T0)
O=C(O)C=Cc1ccccc1 [Cinnamic acid] | high | 59.2%
CCCCCCCC(=O)c1ccc(O)c(C(=O)O)c1 [Reference, 2-hydroxy-5-octanoylbenzoic acid, reference compound] | – | 96.6%
